Several values for one entry are separate records, joined by “and”; a condition that tells them apart may be missing. Equal entries are not always repeated. Toxic doses and inconclusive results are not listed.
Tested on: L1210 leukemia ip in BDF1 mice, survival T/C
Experiment: NCI In Vivo Anticancer Drug Screen. Data for tumor model L1210 Leukemia (intraperitoneal) in B6D2F1 (BDF1) mice
Settings: endpoint: mean survival time, higher = longer survival
Summary of the method: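 Read-out is survival time, reported as the treated-group measurement over the vehicle-control measurement.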

[1] = dose: 50.0 mg/kg/injection, schedule: Q01DX001 (ip), vehicle: saline
[2] = dose: 100.0 mg/kg/injection, schedule: Q01DX001 (ip), vehicle: saline
[3] = dose: 200.0 mg/kg/injection, schedule: Q01DX001 (ip), vehicle: saline
[4] = dose: 400.0 mg/kg/injection, schedule: Q01DX001 (ip), vehicle: saline
[5] = dose: 50.0 mg/kg/injection, schedule: Q01DX009 (ip), vehicle: saline
[6] = dose: 100.0 mg/kg/injection, schedule: Q01DX009 (ip), vehicle: saline
[7] = dose: 25.0 mg/kg/injection, schedule: Q01DX009 (ip), vehicle: saline
[8] = dose: 100.0 mg/kg/injection, schedule: Q04DX003 (ip), vehicle: saline with Tween-80
[9] = dose: 200.0 mg/kg/injection, schedule: Q04DX003 (ip), vehicle: saline with Tween-80
[10] = dose: 400.0 mg/kg/injection, schedule: Q04DX003 (ip), vehicle: saline with Tween-80

NCc1ccc(OCc2nc(N)nc(N)c2-c2ccc(Cl)cc2)cc1
T/C (dose: 25.0 mg/kg/injection, schedule: Q01DX001 (ip), vehicle: saline with Tween-80): 97 % of control
T/C (dose: 50.0 mg/kg/injection, schedule: Q01DX001 (ip), vehicle: saline with Tween-80): 87 % of control
T/C (dose: 100.0 mg/kg/injection, schedule: Q01DX001 (ip), vehicle: saline with Tween-80): 95 % of control and 96 % of control

CC(=O)C(C(C)=O)C(C)(C)C
T/C [1]: 95 % of control
T/C [2]: 97 % of control
T/C [3]: 90 % of control
T/C [4]: 95 % of control

CC(C)(C)CN
T/C [5]: 98 % of control
T/C [6]: 93 % of control
T/C (dose: 100.0 mg/kg/injection, schedule: Q04DX003 (ip), vehicle: saline): 102 % of control
T/C (dose: 200.0 mg/kg/injection, schedule: Q04DX003 (ip), vehicle: saline): 98 % of control

CN(C)[C@@H]1C(=O)C(C(=O)NCNC(CO)(CO)CO)=C(O)[C@@]2(O)C(=O)C3=C(O)c4c(O)cccc4[C@@](C)(O)[C@H]3C[C@@H]12
T/C (dose: 1.0 mg/kg/injection, schedule: Q01DX Z (ip), vehicle: saline): 100 % of control
T/C (dose: 4.0 mg/kg/injection, schedule: Q01DX Z (ip), vehicle: saline): 100 % of control
T/C (dose: 14.0 mg/kg/injection, schedule: Q01DX Z (ip), vehicle: saline): 108 % of control
T/C (dose: 15.0 mg/kg/injection, schedule: Q01DX Z (ip), vehicle: saline): 102 % of control
T/C [7]: 104 % of control
T/C (dose: 28.0 mg/kg/injection, schedule: Q01DX Z (ip), vehicle: saline): 94 % of control
T/C [5]: 97 % of control and 101 % of control
T/C (dose: 60.0 mg/kg/injection, schedule: Q01DX Z (ip), vehicle: saline): 100 % of control
T/C [2]: 93 % of control and 95 % of control
T/C [6]: 98 % of control and 97 % of control
T/C (dose: 100.0 mg/kg/injection, schedule: Q04DX003 (ip), vehicle: acetone): 92 % of control
T/C (dose: 112.0 mg/kg/injection, schedule: Q01DX Z (ip), vehicle: saline): 93 % of control
T/C (dose: 120.0 mg/kg/injection, schedule: Q01DX Z (ip), vehicle: saline): 113 % of control
T/C [3]: 108 % of control and 106 % of control
T/C (dose: 200.0 mg/kg/injection, schedule: Q04DX003 (ip), vehicle: acetone): 100 % of control and 94 % of control
T/C (dose: 224.0 mg/kg/injection, schedule: Q01DX Z (ip), vehicle: saline): 115 % of control
T/C (dose: 240.0 mg/kg/injection, schedule: Q01DX Z (ip), vehicle: saline): 111 % of control
T/C (dose: 266.0 mg/kg/injection, schedule: Q01DX009 (ip), vehicle: saline): 96 % of control
T/C [4]: 104 % of control and 92 % of control
T/C (dose: 400.0 mg/kg/injection, schedule: Q04DX003 (ip), vehicle: acetone): 91 % of control and 90 % of control

CCC(=O)c1c(C)c(C)cc2ccccc12
T/C (dose: 100.0 mg/kg/injection, schedule: Q01DX009 (ip), vehicle: other): 97 % of control
T/C (dose: 200.0 mg/kg/injection, schedule: Q01DX009 (ip), vehicle: other): 95 % of control
T/C (dose: 400.0 mg/kg/injection, schedule: Q01DX009 (ip), vehicle: other): 108 % of control

CCN(CC)S(=O)(=O)c1ccc(OC)c(NC(=O)c2ccc(C(=O)Nc3cc(S(=O)(=O)N(CC)CC)ccc3OC)cc2)c1
T/C [2]: 97 % of control
T/C [3]: 94 % of control
T/C [4]: 102 % of control

COc1cc(NS(C)(=O)=O)ccc1Nc1c2cccc(C)c2nc2c(C)cccc12
T/C (dose: 6.25 mg/kg/injection, schedule: Q01DX009 (ip), vehicle: saline): 117 % of control
T/C (dose: 6.25 mg/kg/injection, schedule: Q01DX009 (sc), vehicle: Klucel (hydroxypropylcellulose) (HPC)): 103 % of control
T/C (dose: 12.5 mg/kg/injection, schedule: Q01DX009 (ip), vehicle: water): 170 % of control
T/C (dose: 12.5 mg/kg/injection, schedule: Q01DX009 (sc), vehicle: Klucel (hydroxypropylcellulose) (HPC)): 104 % of control
T/C [7]: 175 % of control
T/C (dose: 25.0 mg/kg/injection, schedule: Q01DX009 (ip), vehicle: water): 201 % of control
T/C (dose: 25.0 mg/kg/injection, schedule: Q01DX009 (sc), vehicle: Klucel (hydroxypropylcellulose) (HPC)): 112 % of control
T/C [1]: 115 % of control
T/C (dose: 50.0 mg/kg/injection, schedule: Q01DX001 (ip), vehicle: water): 167 % of control
T/C [5]: 166 % of control
T/C (dose: 50.0 mg/kg/injection, schedule: Q01DX009 (sc), vehicle: Klucel (hydroxypropylcellulose) (HPC)): 111 % of control
T/C [2]: 115 % of control
T/C (dose: 100.0 mg/kg/injection, schedule: Q01DX001 (ip), vehicle: water): 213 % of control
T/C (dose: 100.0 mg/kg/injection, schedule: Q01DX009 (ip), vehicle: water): 107 % of control
T/C (dose: 200.0 mg/kg/injection, schedule: Q01DX001 (ip), vehicle: water): 224 % of control
T/C (dose: 400.0 mg/kg/injection, schedule: Q01DX001 (ip), vehicle: water): 102 % of control

O=C(CCN1CC1)OCCOC(=O)CCN1CC1
T/C (dose: 7.1 mg/kg/injection, schedule: Q01DX Z (ip), vehicle: methylcellulose (MC)): 97 % of control
T/C (dose: 7.2 mg/kg/injection, schedule: Q01DX005 (ip), vehicle: saline): 121 % of control
T/C (dose: 10.6 mg/kg/injection, schedule: Q01DX Z (ip), vehicle: methylcellulose (MC)): 113 % of control
T/C (dose: 12.5 mg/kg/injection, schedule: Q04DX003 (ip), vehicle: acetone): 109 % of control
T/C (dose: 16.0 mg/kg/injection, schedule: Q01DX Z (ip), vehicle: methylcellulose (MC)): 113 % of control and 120 % of control
T/C (dose: 16.5 mg/kg/injection, schedule: Q04DX003 (ip), vehicle: acetone): 101 % of control
T/C (dose: 16.5 mg/kg/injection, schedule: Q04DX003 (ip), vehicle: saline): 110 % of control
T/C (dose: 22.0 mg/kg/injection, schedule: Q01DX001 (ip), vehicle: saline): 122 % of control
T/C (dose: 24.0 mg/kg/injection, schedule: Q01DX Z (ip), vehicle: methylcellulose (MC)): 98 % of control and 103 % of control
T/C (dose: 25.0 mg/kg/injection, schedule: Q01DX009 (ip), vehicle: acetone): 150 % of control
T/C (dose: 25.0 mg/kg/injection, schedule: Q04DX003 (ip), vehicle: acetone): 103 % of control
T/C (dose: 37.5 mg/kg/injection, schedule: Q01DX009 (ip), vehicle: acetone): 160 % of control
T/C (dose: 37.5 mg/kg/injection, schedule: Q04DX003 (ip), vehicle: acetone): 106 % of control
T/C (dose: 37.5 mg/kg/injection, schedule: Q04DX003 (ip), vehicle: saline): 105 % of control
T/C (dose: 50.0 mg/kg/injection, schedule: Q04DX003 (ip), vehicle: acetone): 124 % of control
T/C (dose: 55.0 mg/kg/injection, schedule: Q01DX005 (ip), vehicle: saline): 155 % of control

COC1OC2COc3ccccc3OC2C2C1N2C(N)=S (stereo not given)
T/C (dose: 100.0 mg/kg/injection, schedule: Q04DX002 (ip), vehicle: saline): 96 % of control
T/C (dose: 200.0 mg/kg/injection, schedule: Q04DX002 (ip), vehicle: saline): 100 % of control
T/C (dose: 400.0 mg/kg/injection, schedule: Q04DX002 (ip), vehicle: saline): 100 % of control

O=C(O)CCCCCCCCCCCCCCCO
T/C [8]: 96 % of control
T/C [9]: 96 % of control
T/C [10]: 91 % of control

CC(=O)N(C)CC(O)C(O)C(O)C(O)CO (stereo not given)
T/C [8]: 100 % of control
T/C [9]: 94 % of control
T/C [10]: 96 % of control

O=C(Nc1ccc(Cl)cc1)SCCSC(=O)Nc1ccc(Cl)cc1
T/C (dose: 100.0 mg/kg/injection, schedule: Q04DX002 (ip), vehicle: other): 97 % of control and 101 % of control
T/C (dose: 100.0 mg/kg/injection, schedule: Q04DX003 (ip), vehicle: other): 98 % of control and 105 % of control
T/C (dose: 200.0 mg/kg/injection, schedule: Q04DX002 (ip), vehicle: other): 93 % of control and 101 % of control
T/C (dose: 200.0 mg/kg/injection, schedule: Q04DX003 (ip), vehicle: other): 94 % of control and 89 % of control
T/C (dose: 400.0 mg/kg/injection, schedule: Q04DX002 (ip), vehicle: other): 95 % of control and 90 % of control
T/C (dose: 400.0 mg/kg/injection, schedule: Q04DX003 (ip), vehicle: other): 95 % of control and 91 % of control

C=C1C(C)=NN=C2C=CN(C(=O)CI)N12
T/C [2]: 109 % of control
T/C [3]: 106 % of control
T/C [4]: 106 % of control

O=c1[nH]cnc2c1cnn2-c1ccccc1
T/C (dose: 100.0 mg/kg/injection, schedule: Q01DX009 (ip), vehicle: Klucel (hydroxypropylcellulose) (HPC)): 104 % of control
T/C (dose: 200.0 mg/kg/injection, schedule: Q01DX009 (ip), vehicle: Klucel (hydroxypropylcellulose) (HPC)): 104 % of control
T/C (dose: 400.0 mg/kg/injection, schedule: Q01DX009 (ip), vehicle: Klucel (hydroxypropylcellulose) (HPC)): 112 % of control
